Test results as given in patent publication US20260125371A1, “METHOD FOR INHIBITING CLOSTRIDIOIDES DIFFICILE SPORE GERMINATION” (UNIVERSITY OF NOTRE DAME DU LAC, priority 2022, published 2026).

Legend:
[1] = tested on: B. licheniformis ATCC 12759; test: MIC against B. licheniformis; type: cell-based; details: Bacillus licheniformis, ATCC12759
[2] = tested on: S. epidermidis ATCC 35547; test: MIC against S. epidermidis; type: cell-based; details: Staphylococcus epidermidis, ATCC35547

**Q.** `Cc1ncc([N+](=O)[O-])n1CCO` [MTZ, metronidazole] was tested. Which MIC [1] did it give?
**A.** > 256 µg/mL

**Q.** What about the MIC [2] of the same molecule?
**A.** > 128 µg/mL
